Results as given in the OPERA property sets (Mansouri et al. 2018).

Q: With `c1ccc2c(c1)Sc1ccccc1N2CC1CN2CCC1CC2` (stereo unspecified) as the molecule, how does the melting point read?
A: 130 °C

Q: With `CCC(C)C(CC)C(C)C` (stereo unspecified) as the molecule, how does the boiling point read?
A: 162 °C

Q: With `CCOC(F)(F)C(F)F` as the molecule, how does the boiling point read?
A: 57.5 °C

Q: What about the log10 vapour pressure (mmHg) of the same molecule?
A: 2.34

Q: With `Nc1ccc(Br)cc1[N+](=O)[O-]` as the molecule, how does the melting point read?
A: 112 °C

Q: Which melting point does the source give for `COC(=O)C1(S(=O)(=O)c2ccccc2)CC1` here?
A: 74.5 °C

Q: For `Cc1cccc2ncccc12`, which boiling point is on record?
A: 263 °C

Q: What about the melting point of the same molecule?
A: 19 °C

Q: Which boiling point does the source give for `CC(/C=C\c1ccccc1)c1ccccc1` (stereo unspecified) here?
A: 311 °C

Q: And the melting point?
A: 47.5 °C

Q: For `Clc1ccc(Cl)nn1`, which melting point is on record?
A: 67.5 °C

Q: With `CC(C)=CCCC(C)=CC(=O)O` as the molecule, how does the boiling point read?
A: 250 °C

Q: For `O=C(OCCO)c1ccccc1`, which melting point is on record?
A: 45 °C

Q: With `CC(Cl)Cl` as the molecule, how does the boiling point read?
A: 57.4 °C

Q: What about the log10 Henry constant (atm·m³/mol) of the same molecule?
A: -2.25

Q: And the log10 Koa?
A: 2.41

Q: What about the log10 Koc (L/kg) of the same molecule?
A: 1.48

Q: What about the log10 vapour pressure (mmHg) of the same molecule?
A: 2.36

Q: And the melting point?
A: -96.9 °C

Q: And the ready biodegradability?
A: not readily biodegradable

Q: With `C[C@]12CCC(=O)C=C1CC[C@@H]1[C@@H]2CC[C@@]2(C)[C@H]1CC[C@]2(O)C(=O)CO` as the molecule, how does the melting point read?
A: 215 °C

Q: Which results are given for `CCCCCCCCCCCCCCCCCC(=O)OC`?
A: boiling point: 370 °C; log10 vapour pressure (mmHg): -4.87; melting point: 39.1 °C

Q: What does the source list for `ClC(Cl)=C(c1ccc(Cl)cc1)c1ccccc1Cl`?
A: log10 Koc (L/kg): 5.49; log10 vapour pressure (mmHg): -5.21

Q: With `CC(C)(SC(=O)N1CCCCC1)c1ccccc1` as the molecule, how does the log10 vapour pressure (mmHg) read?
A: -5.4

Q: What about the melting point of the same molecule?
A: 39 °C

Q: Which melting point does the source give for `CCCCCCCCCC(=O)CCCCCCCCC` here?
A: 65.5 °C

Q: Which melting point does the source give for `O=C(O)c1ccc(C(=O)c2ccccc2)cc1` here?
A: 199 °C

Q: For `COOC`, which boiling point is on record?
A: 14 °C

Q: Which melting point does the source give for `CC(=C(CCO)SSC(CCO)=C(C)N(C=O)Cc1cnc(C)nc1N)N(C=O)Cc1cnc(C)nc1N` here?
A: 177 °C

Q: What does the source list for `C=Cc1ccccc1Cl`?
A: boiling point: 189 °C; log10 vapour pressure (mmHg): -0.0173; melting point: -63.1 °C; ready biodegradability: not readily biodegradable

Q: With `O=C(c1ccccc1)c1cccc(Br)c1` as the molecule, how does the melting point read?
A: 81 °C

Q: For `Cc1ccc(C)c(C=O)c1`, which boiling point is on record?
A: 220 °C

Q: With `COc1cc(O)c2c(=O)c(O)c(-c3ccc(O)c(O)c3)oc2c1` as the molecule, how does the melting point read?
A: 295 °C

Q: What does the source list for `ClCCl`?
A: boiling point: 40 °C; log10 Henry constant (atm·m³/mol): -2.49; log10 Koa: 2.27; log10 Koc (L/kg): 1.44; log10 vapour pressure (mmHg): 2.64; melting point: -95.1 °C; ready biodegradability: not readily biodegradable

Q: With `CCCCNC(=O)NS(=O)(=O)c1ccc(N)cc1` as the molecule, how does the melting point read?
A: 144 °C

Q: Which boiling point does the source give for `COCCOC(C)=O` here?
A: 143 °C

Q: What about the log10 vapour pressure (mmHg) of the same molecule?
A: 0.301

Q: What about the melting point of the same molecule?
A: -70 °C

Q: What about the ready biodegradability of the same molecule?
A: readily biodegradable

Q: With `O=C(O)c1cc(Br)cc(Br)c1O` as the molecule, how does the melting point read?
A: 228 °C

Q: For `C/C=C(C)/C=C/C=C(C)C`, which boiling point is on record?
A: 188 °C

Q: For `O=Cc1ccco1`, which boiling point is on record?
A: 162 °C

Q: And the log10 vapour pressure (mmHg)?
A: 0.344

Q: And the melting point?
A: -38.1 °C

Q: What about the ready biodegradability of the same molecule?
A: readily biodegradable

Q: Which melting point does the source give for `NC(=O)c1cccs1` here?
A: 182 °C

Q: Which melting point does the source give for `CCCCOc1ccc(C(=O)OCCN(CC)CC)cc1` here?
A: 146 °C

Q: For `FCCCCCl`, which boiling point is on record?
A: 115 °C

Q: With `O=[N+]([O-])c1cc(Br)ccc1Br` as the molecule, how does the melting point read?
A: 85.5 °C

Q: For `O=C1OC(=O)c2ccccc21`, which boiling point is on record?
A: 295 °C

Q: What about the log10 Koc (L/kg) of the same molecule?
A: 1.56

Q: What about the log10 vapour pressure (mmHg) of the same molecule?
A: -3.29

Q: And the melting point?
A: 131 °C

Q: What about the ready biodegradability of the same molecule?
A: readily biodegradable

Q: For `ClCC#CCCl`, which boiling point is on record?
A: 166 °C

Q: For `c1ccc(C2CC2)cc1`, which boiling point is on record?
A: 174 °C

Q: And the melting point?
A: -31 °C

Q: Which boiling point does the source give for `c1ccc(Cc2ccncc2)cc1` here?
A: 288 °C

Q: And the melting point?
A: 12.4 °C

Q: Which melting point does the source give for `O=C1Cc2ccccc2N1` here?
A: 128 °C

Q: Which melting point does the source give for `C[C@]12CCC(=O)C=C1CC[C@@H]1[C@@H]2[C@@H](O)C[C@@]2(C)[C@H]1CC[C@]2(O)C(=O)CO` here?
A: 218 °C

Q: For `Cc1c([N+](=O)[O-])cc(C(C)C)c(O)c1[N+](=O)[O-]`, which melting point is on record?
A: 55.5 °C

Q: With `OC1CC=CCC1` (stereo unspecified) as the molecule, how does the boiling point read?
A: 164 °C

Q: With `CCCC(C(=O)OCC)C(=O)OCC` as the molecule, how does the boiling point read?
A: 221 °C

Q: With `O=[N+]([O-])c1cc([N+](=O)[O-])c2ccccc2c1` as the molecule, how does the melting point read?
A: 148 °C

Q: With `O=P(O)(O)c1ccccc1` as the molecule, how does the melting point read?
A: 164 °C

Q: For `FC(F)OC(Cl)C(F)(F)F` (stereo unspecified), which boiling point is on record?
A: 48.5 °C

Q: And the log10 Henry constant (atm·m³/mol)?
A: -1.54

Q: What about the melting point of the same molecule?
A: 48.5 °C

Q: Which melting point does the source give for `CC(C)(C(=O)c1cccnc1)c1cccnc1` here?
A: 50.5 °C

Q: For `C=CC[Si](C)(C)C`, which boiling point is on record?
A: 86 °C

Q: With `CCC(=O)Oc1ccc(/C(CC)=C(\CC)c2ccc(OC(=O)CC)cc2)cc1` as the molecule, how does the melting point read?
A: 104 °C

Q: Which boiling point does the source give for `FC(F)=C(F)C(F)(F)F` here?
A: -29.6 °C

Q: What about the log10 vapour pressure (mmHg) of the same molecule?
A: 3.69

Q: What about the melting point of the same molecule?
A: -156 °C

Q: With `CC(C)(OCc1ccc(-c2ccc(Cl)cc2)cc1)C(=O)O` as the molecule, how does the melting point read?
A: 154 °C

Q: Which results are given for `CCCCOCCOCCCC`?
A: boiling point: 203 °C; log10 vapour pressure (mmHg): -1.05; melting point: -69.1 °C

Q: Which melting point does the source give for `O=S(=O)(O)c1ccc(Nc2ccccc2)cc1` here?
A: 206 °C

Q: Which log10 Koc (L/kg) does the source give for `Cc1cc(NC(N)=O)ccc1F` here?
A: 1.75

Q: Which melting point does the source give for `CCCCCCCCCCCCC1=C(OC(C)=O)C(=O)c2ccccc2C1=O` here?
A: 59.6 °C

Q: With `CCOc1ccc(C(N)=O)cc1` as the molecule, how does the melting point read?
A: 209 °C

Q: Which boiling point does the source give for `COc1cccc(O)c1` here?
A: 244 °C

Q: And the log10 Henry constant (atm·m³/mol)?
A: -7.24

Q: What about the log10 Koc (L/kg) of the same molecule?
A: 1.5

Q: What about the log10 vapour pressure (mmHg) of the same molecule?
A: -1.71

Q: What about the ready biodegradability of the same molecule?
A: readily biodegradable

Q: Which results are given for `OCC(O)CCl` (stereo unspecified)?
A: log10 vapour pressure (mmHg): -0.699; ready biodegradability: readily biodegradable

Q: With `C=C1CCC1=C` as the molecule, how does the boiling point read?
A: 64 °C

Q: For `CN(C)[C@@H]1C(O)=C(C(N)=O)C(=O)[C@@]2(O)C(O)=C3C(=O)c4c(O)cccc4[C@@](C)(O)[C@H]3C[C@@H]12.Cl`, which melting point is on record?
A: 222 °C

Q: What does the source list for `CCCCc1cccc2ccccc12`?
A: boiling point: 289 °C; melting point: -19.8 °C
